Source: patent publication US20260364184A1, “COMPOUND BASED ON OXOISOINDOLINYL-SUBSTITUTED TETRAHYDROPYRIMIDINE-DIONE AND USE THEREOF” (GLUETACS THERAPEUTICS (SHANGHAI) CO., LTD., priority 2023, published 2026)

Experiments:
[1] = target: T1, human Cereblon WT GST-tagged protein (CRBN) (Homo sapiens, UniProt Q96SW2); experiment: CRBN binding by HTRF (Cereblon binding kit); details: for inhibition at 0.5 µM: read-out: Inhibition Rate at 0.5 μM (%); for inhibition at 2 µM: read-out: Inhibition Rate at 2 μM (%)
T1 construct: purchased CISBIO 64BDCRBNPEH
T1 sequence (Q96SW2 whole entry): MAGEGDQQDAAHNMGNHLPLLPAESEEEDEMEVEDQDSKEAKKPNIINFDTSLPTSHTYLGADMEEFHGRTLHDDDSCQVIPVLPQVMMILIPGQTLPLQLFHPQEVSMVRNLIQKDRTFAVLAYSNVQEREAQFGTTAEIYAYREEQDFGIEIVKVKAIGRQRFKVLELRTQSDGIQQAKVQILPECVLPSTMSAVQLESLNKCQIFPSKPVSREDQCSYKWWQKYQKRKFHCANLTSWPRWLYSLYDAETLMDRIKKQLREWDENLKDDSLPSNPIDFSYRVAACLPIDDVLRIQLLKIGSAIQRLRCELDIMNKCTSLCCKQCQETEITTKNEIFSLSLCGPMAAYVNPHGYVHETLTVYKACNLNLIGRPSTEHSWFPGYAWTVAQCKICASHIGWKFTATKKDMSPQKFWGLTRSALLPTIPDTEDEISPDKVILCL
Outline: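 GST-tagged human Cereblon WT was incubated 3 h at room temperature with compound, thalidomide-Re tracer and Eu anti-GST antibody. Final compound concentrations were 10 to 0.00064 µM (7 points) or 2 and 0.5 µM. Inhibition rate was calculated from HTRF 665/620 nm ratios versus solvent and blank controls.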

IRAK4 = target: T2, IRAK4 (Homo sapiens, UniProt Q9NWZ3); experiment: Western blot degradation of IRAK4; format: cell-based; details: hPBMC Cell; 24 hours
T2 construct: expression of target proteins in cells; endogenous in cells
T2 sequence (Q9NWZ3 1-460): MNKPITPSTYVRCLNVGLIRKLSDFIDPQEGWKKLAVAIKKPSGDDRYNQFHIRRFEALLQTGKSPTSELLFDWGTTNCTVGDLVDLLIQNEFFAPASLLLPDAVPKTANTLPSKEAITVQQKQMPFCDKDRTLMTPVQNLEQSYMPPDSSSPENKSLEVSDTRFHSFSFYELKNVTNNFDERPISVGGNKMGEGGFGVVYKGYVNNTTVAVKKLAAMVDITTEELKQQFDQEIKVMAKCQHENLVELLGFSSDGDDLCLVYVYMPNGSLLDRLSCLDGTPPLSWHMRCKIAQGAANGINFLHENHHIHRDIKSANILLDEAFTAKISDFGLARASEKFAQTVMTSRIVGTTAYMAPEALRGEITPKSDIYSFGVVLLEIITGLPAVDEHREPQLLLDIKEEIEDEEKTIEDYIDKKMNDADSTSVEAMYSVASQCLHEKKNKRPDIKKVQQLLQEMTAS
Outline: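 Compound-treated cells harvested; lysates denatured 5 min at 95 °C, run on SDS-PAGE, blotted to NC membrane, blocked 1 h RT, probed with antibodies. Densitometry vs DMSO → DC50; target normalised to internal control → % remaining, degradation = 1 − remaining.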

| inhibition at 0.5 µM [1] [%] | inhibition at 2 µM [1] [%] | Degradation of substrate protein IRAK4 (substrate protein remaining %) (IRAK4) | Inhibition Rate at 0.5 μM (%) [1] | Inhibition Rate at 2 μM (%) [1] | SMILES |
| --- | --- | --- | --- | --- | --- |
| 30 to 40 | 20 to 30 |  |  |  | CC1(C)[C@H](NC(=O)c2ccc(N3CCC(CN4CC5CCC4CN5c4ccc5c(c4)C(=O)N(N4CCC(=O)NC4=O)C5=O)CC3)nc2)C(C)(C)[C@H]1Oc1ccc(C#N)c(Cl)c1 (stereo partly drawn) [GT-05834, N-((1r,3r)-3-(3-chloro-4-cyanophenoxy)-2,2,4,4-tetramethylcyclobutyl)-6-(4-((5-(2-(2,4-dioxotetrahydropyrimidin-1(2H)-yl)-1,3-dioxoisoindolin-5-yl)-2,5-diazabicyclo[2.2.2]octan-2-yl)methyl)piperidin-1-yl)nicotinamide] |
| 20 to 30 | 53 to 60 | A (0%≤substrate protein remaining %≤80%) |  |  | O=C1CCN(N2Cc3cc(CN4CCC(n5cc(NC(=O)c6cnn7ccc(N8CCOCC8)nc67)c(C(F)F)n5)CC4)ccc3C2=O)C(=O)N1 [GT-05749] |
|  |  | A (0%≤substrate protein remaining %≤80%) | a3 (30% < a3 ≤ 40%) | a6 (60% < a6 ≤ 80%) | O=C1CCN(N2Cc3cc(CN4CCC(n5cc(NC(=O)c6coc(-c7ccnc(NCC8CC8)c7)n6)c(C(F)F)n5)CC4)ccc3C2=O)C(=O)N1 [GT-04951, 2-(2-((cyclopropylmethyl)amino)pyridin-4-yl)-N-(3-(difluoromethyl)-1-(1-((2-(2,4-dioxotetrahydropyrimidin-1(2H)-yl)-1-oxoisoindolin-5-yl)methyl)piperidin-4-yl)-1H-pyrazol-4-yl) oxazole-4-carboxamide] |
| 30 to 40 | 53 to 60 | A (0%≤substrate protein remaining %≤80%) |  |  | O=C1CCN(N2C(=O)c3ccc(N4C5CC4CN(C[C@H]4CC[C@H](n6cc(NC(=O)c7cnn8ccc(N9C[C@H]%10C[C@@H]9CO%10)nc78)c(C(F)F)n6)CC4)C5)cc3C2=O)C(=O)N1 [GT-05242, 5-((1R,4R)-2-oxa-5-azabicyclo[2.2.1]heptan-5-yl)-N-(3-(difluoromethyl)-1-((1r,4R)-4-((6-(2-(2,4-dioxotetrahydropyrimidin-1(2H)-yl)-1,3-dioxoisoindolin-5-yl)-3,6-diazabicyclo[3.1.1]heptan-3-yl)methyl)cyclohexyl)-1H-pyrazol-4-yl)pyrazolo[1,5-a]pyrimidine-3-carboxamide] |
|  |  | A (0%≤substrate protein remaining %≤80%) | a2 (20% < a2 ≤ 30%) | a6 (60% < a6 ≤ 80%) | O=C1CCN(N2Cc3cc(CN4CCC(n5cc(NC(=O)c6cnn7ccc(N8C[C@H]9C[C@@H]8CO9)nc67)c(C(F)F)n5)CC4)ccc3C2=O)C(=O)N1 [GT-05028, 5-((1R,4R)-2-oxa-5-azabicyclo[2.2.1]heptan-5-yl)-N-(3-(difluoromethyl)-1-(1-((2-(2,4-dioxotetrahydropyrimidin-1(2H)-yl)-1-oxoisoindolin-5-yl)methyl)piperidin-4-yl)-1H-pyrazol-4-yl)pyrazolo[1,5-a]pyrimidine-3-carboxamide] |
| 20 to 30 | 60 to 80 | A (0%≤substrate protein remaining %≤80%) |  |  | O=C1CCN(N2C(=O)c3cccc(N4CCC(CN5CCC(n6cc(NC(=O)c7cnn8ccc(N9C[C@H]%10C[C@@H]9CO%10)nc78)c(C(F)F)n6)CC5)CC4)c3C2=O)C(=O)N1 [GT-05285, 5-((1R,4R)-2-oxa-5-azabicyclo[2.2.1]heptan-5-yl)-N-(3-(difluoromethyl)-1-(1-((1-(2-(2,4-dioxotetrahydropyrimidin-1(2H)-yl)-1,3-dioxoisoindolin-4-yl)piperidin-4-yl)methyl)piperidin-4-yl)-1H-pyrazol-4-yl)pyrazolo[1,5-a]pyrimidine-3-carboxamide] |
| 30 to 40 | 30 to 40 |  |  |  | N#Cc1ccc(O[C@H]2CC[C@H](NC(=O)c3ccc(N4CCC(CN5C[C@@H]6C[C@H]5CN6c5ccc6c(c5)C(=O)N(N5CCC(=O)NC5=O)C6=O)CC4)nn3)CC2)cc1Cl [GT-05226, N-((1r,4r)-4-(3-chloro-4-cyanophenoxy)cyclohexyl)-6-(4-(((1S,4S)-5-(2-(2,4-dioxotetrahydropyrimidin-1(2H)-yl)-1,3-dioxoisoindolin-5-yl)-2,5-diazabicyclo[2.2.1]heptan-2-yl)methyl)piperidin-1-yl)pyridazine-3-carboxamide] |
| 10 to 20 | 60 to 80 | A (0%≤substrate protein remaining %≤80%) |  |  | CC(C)(O)c1cc2nc(C3CCN(Cc4ccc5c(c4)CN(N4CCC(=O)NC4=O)C5=O)CC3)oc2cc1NC(=O)c1cccc(C(F)(F)F)n1 [GT-05748, N-(2-(1-((2-(2,4-dioxotetrahydropyrimidin-1(2H)-yl)-1-oxoisoindolin-5-yl)methyl)piperidin-4-yl)-5-(2-hydroxypropan-2-yl)benzo[d]oxazol-6-yl)-6-(trifluoromethyl) picolinamide] |
| 30 to 40 | 40 to 53 |  |  |  | N#Cc1ccc(O[C@H]2CC[C@H](NC(=O)c3ccc(N4CCC(CN5CC6CCC5CN6c5ccc6c(c5)C(=O)N(N5CCC(=O)NC5=O)C6=O)CC4)nn3)CC2)cc1Cl (stereo partly drawn) [GT-05832, N-((1r,4r)-4-(3-chloro-4-cyanophenoxy)cyclohexyl)-6-(4-((5-(2-(2,4-dioxotetrahydropyrimidin-1(2H)-yl)-1,3-dioxoisoindolin-5-yl)-2,5-diazabicyclo[2.2.2]octan-2-yl)methyl)piperidin-1-yl)pyridazine-3-carboxamide] |
